These results are taken from patent publication US5521311A, “5-aminoacetylaminosulfonanilide compounds” (Taisho Pharmaceutical Co., Ltd., priority 1993, dated 1996).

The test system of test [1] is adjuvant arthritis pain (squeaking response). The test can be described thus: Adjuvant arthritis (pain) test. The test is classed as in vivo, Lewis strain rats. The following applies: squeaking response over 5 hours after oral administration.
Test [2] deals with carrageenin foot edema. The test can be described thus: Carrageenin foot edema test. The test is classed as in vivo, Wister strain rats. The following applies: for inhibition in vivo at 1 mg/kg / inhibition in vivo at 0.5 mg/kg: Rattus norvegicus, po, 3 h, read-out: Edema Inhibition rate; for inhibition in vivo at 0.5 mg/kg: *: dose of 0.5 mg/kg, orally. As to the method: Experiment 1 [Carrageenin foot edema test]
A carrageenin foot edema test was carried out according to the method of Winter et al [Proc. Soc. Exp. Biol. Med., vol. 111, page 544 (1962)].
Six Wister strain rats (for each group) were administered orally with the test drugs [the compounds (a) to (n) of the present invention] and the control drug (indomethacin), each suspended in 5% aqueous gum arabic solution in an amount of 1 ml per 100 g of body weight. An hour later, 0.1 ml of 1% carrageenin was administered subcutaneously into the left hind foot pad. Three hours after the administration of carrageenin, the volume of the foot was determined, and the edema inhibition rate (%) was calculated for the anti-inflammatory effect.
Doses of the test drugs (a) to (l) and the control drug (indomethacin) were each 1 mg/kg, and doses of test drugs (m) and (n) were each 0.5 mg/kg.
For orientation: Carrageenan injected into the paw causes an acute inflammation.

Test [3] deals with adjuvant arthritis. The test can be described thus: Adjuvant arthritis (therapy) test. The test is classed as in vivo, Lewis strain rats. The following applies: foot volume on the day after final administration. As for the experimental part:
Experiment 2 [Adjuvant arthritis (therapy) test]
An adjuvant arthritis (therapy) test was carried out according to the method of Winder et al [Arthritis Rheum., vol. 12, page 472 (1969)].
Seven Lewis strain rats (for each group) were administered subcutaneously 0.7% Mycobacterium tuberculosis suspended in liquid paraffin into the left hind foot pad to induce adjuvant arthritis. 15 to 18 Days after the administration of adjuvant, rats with fully developed arthritis were administered orally with test drugs [the compound (a), (b), (i), (j), (k) and (m) of the present invention]and the control drug (indomethacin), each suspended in 5% aqueous gum arabic solution in an amount of 1 ml per 100 g of body weight once a day for 4 days.
On the day after the final administration, the volume of the foot was determined, and the edema inhibition rate (%) was calculated for the therapeutical effect. Doses of the test drugs were each 0.5 mg/kg, and dose of the control drug (indomethacin) was 1.0 mg/kg.

The mark [4] stands for this setting: 1 mg/kg orally, 1 hour before 1% carrageenin, foot volume 3 hours after carrageenin.
Where [5] appears, read: test drugs 0.5 mg/kg orally once a day for 4 days.
[6] abbreviates: 1 hour before 1% carrageenin, foot volume 3 hours after carrageenin.

Where a name gives a salt, the structure may show the parent alone. Read-outs that look alike come from different tables or passages of the source.

Turning to `CS(=O)(=O)Nc1ccc([N+](=O)[O-])cc1Oc1ccccc1` [Control drug, N-(4-nitro-2-phenoxyphenyl)methanesulfonamide, reference compound], in test [1] (control drug, dose not separately stated), the Inhibition rate stood at 19.4%. Turning to `CCCCNCC(=O)Nc1cc(NS(C)(=O)=O)c(Oc2ccccc2)cc1[N+](=O)[O-]` [Example 1, N-[5-(n-butylaminoacetylamino)4-nitro-2-phenoxyphenyl]methanesulfonamide], the inhibition in vivo at 1 mg/kg in test [2] (setting [4]) worked out at 34.6%. Moreover, in test [3] (setting [5]), the “Edema Inhibition rate” value is 61.1%. Moreover, the Inhibition rate in test [1] (test drugs each 1.0 mg/kg) is on record as 50.6%. Turning to `CCCNCC(=O)Nc1cc(NS(C)(=O)=O)c(Oc2ccccc2)cc1[N+](=O)[O-]` [Example 2, N-[4-nitro-5-(n-propylaminoacetylamino)-2-phenoxyphenyl]methanesulfonamide], the inhibition in vivo at 1 mg/kg in test [2] (setting [4]) stood at 30.2%. Besides, the “Edema Inhibition rate” value in test [3] (test drugs 0.5 mg/kg orally once a day for 4 days, listed as b) was determined as 54.4%. In addition, the Inhibition rate in test [1] (test drugs each 1.0 mg/kg, listed as b) was 47.5%. Consider `CS(=O)(=O)Nc1cc(NC(=O)CNC2CC2)c([N+](=O)[O-])cc1Oc1ccccc1` [Example 5], for which the inhibition in vivo at 1 mg/kg in test [2] (setting [4]) amounted to 31.4%. Consider `CS(=O)(=O)Nc1cc(NC(=O)CNC2CCCC2)c([N+](=O)[O-])cc1Oc1ccccc1` [Example 7], for which, in test [2] (setting [4]), the inhibition in vivo at 1 mg/kg was determined as 27.8%.

In the case of `CS(=O)(=O)Nc1cc(NC(=O)CNC2CCCCC2)c([N+](=O)[O-])cc1Oc1ccccc1` [Example 8], the inhibition in vivo at 1 mg/kg in test [2] (setting [4]) is 32.7%. Same read-out and setting: the value for `C=CCNCC(=O)Nc1cc(NS(C)(=O)=O)c(Oc2ccccc2)cc1[N+](=O)[O-]` [Example 9] was 31.9%.

As for `CS(=O)(=O)Nc1cc(NC(=O)CNCc2ccccc2)c([N+](=O)[O-])cc1Oc1ccccc1` [Example 10], in test [2] (setting [4]), the inhibition in vivo at 1 mg/kg was 35.8%. As for `CNCC(=O)Nc1cc(NS(C)(=O)=O)c(Oc2ccccc2)cc1[N+](=O)[O-]` [Example 20, N-(5-methylaminoacetylamino-4-nitro-2-phenoxyphenyl)methanesulfonamide], the inhibition in vivo at 1 mg/kg in test [2] (setting [4]) came out at 41.8%. The “Edema Inhibition rate” value in test [3] (setting [5]) was 53.0%. The like results for `CCNCC(=O)Nc1cc(NS(C)(=O)=O)c(Oc2ccccc2)cc1[N+](=O)[O-]` [Example 21, N-(5-ethylaminoacetylamino-4-nitro-2-phenoxyphenyl)methanesulfonamide] were, in that order, 39.9% and 54.2%. Take `CS(=O)(=O)Nc1cc(NC(=O)CN)c([N+](=O)[O-])cc1Oc1ccccc1` [Example 22, N-(5-aminoacetylamino-4-nitro-2-phenoxyphenyl)methanesulfonamide]: the inhibition in vivo at 1 mg/kg in test [2] (setting [4]) worked out at 46.6%. Moreover, the “Edema Inhibition rate” value in test [3] (setting [5]) is listed as 52.9%. In test [1] (test drugs each 1.0 mg/kg), the Inhibition rate is listed as 41.9%. Consider `CCCCNCC(=O)Nc1cc(NS(C)(=O)=O)c(Oc2ccccc2)cc1[N+](=O)[O-].Cl` [Example 23, N-[5-(n-butylaminoacetylamino)-4-nitro-2-phenoxyphenyl]methanesulfonamide hydrochloride], for which the “Edema Inhibition rate” value in test [2] (setting [4]) is given as 25.1%. For `CCCNCC(=O)Nc1cc(NS(C)(=O)=O)c(Oc2ccccc2)cc1[N+](=O)[O-]` [Example 24, N-[4-nitro-5-(n-propylaminoacetylamino)-2-phenoxyphenyl]methanesulfonamidehydrochloride], the inhibition in vivo at 0.5 mg/kg in test [2] (setting [6]) was 22.4%. In addition, the “Edema Inhibition rate” value in test [3] (test drugs 0.5 mg/kg orally once a day for 4 days, listed as m) is recorded as 53.0%. Further, the Inhibition rate in test [1] (test drugs each 1.0 mg/kg, listed as m) was 52.1%. As for `CS(=O)(=O)Nc1cc(NC(=O)CN)c([N+](=O)[O-])cc1Oc1ccccc1` [Example 25, N-(5-aminoacetylamino-4-nitro-2-phenoxyphenyl)methanesulfonamide hydrochloride], the inhibition in vivo at 0.5 mg/kg in test [2] (setting [6]) came to 27.9%. On to `COc1ccc2c(c1)c(CC(=O)O)c(C)n2C(=O)c1ccc(Cl)cc1` [indomethacin, reference compound], for which the inhibition in vivo at 1 mg/kg in test [2] was 21.4%. Also, in test [3] (control drug 1.0 mg/kg orally once a day for 4 days), the “Edema Inhibition rate” value is recorded as 39.5%.

With “N-[2-Cyclohexyloxy-5-(n-propylaminoacetylamino)phenyl]methanesulfonamide [Example 18]”, the “Edema Inhibition rate” value in test [2] (setting [4]) is on record as 36.0%.
